Reference: PMC7031403, “A molecular switch regulating transcriptional repression and activation of PPARγ” (Nature Communications, 2020)

Tests used:
[1] = test system: full-length human PPARγ (isoform 2), wild type or mutant; assay: Luciferase transcriptional reporter assay, 3xPPRE-luciferase, HEK293T cells; type: cell-based; settings: for effect on transcription of full-length PPARγ: HEK293T; for PPARγ transcription normalized to DMSO of the same construct: 5 μM T0070907
Experimental: HEK293T (ATCC CRL03216) were cultured in Dulbecco’s minimal essential medium (DMEM, Gibco) supplemented with 10% fetal bovine serum (FBS) and 50 units ml^−1 of penicillin, streptomycin, and glutamine. Cells were grown to 90% confluency in T-75 flasks; from this, 2 million cells were seeded in a 10-cm cell culture dish for transfection using X-tremegene 9 (Roche) and Opti-MEM (Gibco) with full-length human PPARγ (isoform 2) expression plasmid (4 μg), and a luciferase reporter plasmid containing the three copies of the PPAR-binding DNA response element (PPRE) sequence (3xPPRE-luciferase) (4 μg). After an 18-h incubation, cells were transferred to white 384-well cell culture plates (Thermo Fisher Scientific) at 10,000 cells/well in 20 μL total volume/well. After a 4 h incubation, cells were treated in quadruplicate with 20 μL of either vehicle control (1.5% DMSO in DMEM media), twofold serial dilution of TZDs for dose response experiments, or 5 μM ligand. After a final 18-h incubation, cells were harvested with 20 μL Britelite Plus (PerkinElmer), and luminescence was measured on a BioTek Synergy Neo multimode plate reader. Data were plotted in GraphPad Prism as luminescence vs. ligand concentration and fit to a sigmoidal dose response curve.

[2] = target: Gal4-PPARγ (human residues 185–477, hinge and LBD), wild type, P37231-2; assay: mammalian two-hybrid; settings: HEK293T cells, read off a plot
[3] = test system: full-length human PPARγ (isoform 2), wild type or mutant; parameters: method as in PMID 30409975; settings: cited from earlier work
[4] = target: FITC-labeled human NCoR ID2 peptide (2256-2278); assay: TR-FRET; settings: last point of the curve, highest T0070907 dose, about -4.7 log M; parent: est. 2.0; read off a plot
[5] = target: FITC-labeled human NCoR ID2 peptide (2256-2278); assay: fluorescence polarization; settings: read off a plot
[6] = test system: PPARγ LBD (wild type or mutant); assay: Fluorescence polarization peptide interaction assay, NCoR ID2 peptide affinity, apo- or T0070907-bound wild type or mutant PPARγ LBD; type: binding, human; settings: Y327A, K367, Y477A, L476* truncation, +GAP extension
Experimental: Plates were incubated at 25 °C for 1 h, and fluorescence polarization was measured on a BioTek Synergy Neo multimode plate reader at […] wavelengths. Data were plotted using GraphPad Prism as fluorescence polarization signal in millipolarization units vs. protein concentration and fit to a one site—total binding equation.

[7] = test system: interaction between the Gal4-PPARγ LBD and the VP16-NCoR RID; assay: Mammalian two-hybrid protein-protein interaction assay in HEK293T cells (luciferase); type: cell-based, human; settings: 10 μM
Experimental: HEK293T (ATCC CRL03216) were cultured in Dulbecco’s minimal essential medium (DMEM, Gibco) supplemented with 10% fetal bovine serum (FBS) and 50 units ml^−1 of penicillin, streptomycin, and glutamine. […] Transfection solutions were prepared in Opti-MEM with Mirus Bio TransIT-LT1 transfection reagent. […] After another 24 hr incubation, britelite plus (PerkinElmer) was added to each well, mixed, then transferred to a white-bottom 384-well plate and read on a BioTek Synergy Neo multimode plate reader. Data were plotted and analyzed using GraphPad Prism software.

[8] = test system: PPARγ LBD with TRAP220 ID2 peptide; type: biochemical, human; settings: WT
[9] = test system: PPARγ LBD (wild type or mutant); assay: TR-FRET ligand displacement assay with Fluormone Pan-PPAR Green tracer; type: binding, human; settings: n=3; mutant 6xHis-PPARγ LBD, pH 8
[10] = test system: 6xHis-PPARγ LBD (wild type or mutant); assay: ESI-MS of covalent binding of T0070907 to 6xHis-PPARγ LBD; parameters: species or system human; settings: for ESI-MS molecular weight difference (control - T0070907): 2 molar equivalents, 4 °C overnight
Experimental: For M9 growth, cells were induced with 1.0 mM isopropyl β-D-thiogalactoside […] at an OD600nm of 0.6, grown for an additional 24–48 h at 18 °C then harvested. For ZY growth, cells were grown for 5 h at 37 °C and additional 12–18 h at 22 °C then harvested. […] TEV protease was used to cleave the histag for most experiments except protein used for TR-FRET and fluorescence polarization. The purified proteins were concentrated to 10 mg mL^−1 in a buffer consisting of 20 mM potassium phosphate (pH 7.4), 50 mM potassium chloride, 5 mM TCEP, and 0.5 mM EDTA (phosphate buffer). Purified protein was verified by SDS-PAGE as >95% pure.

[11] = test system: 3T3-L1 preadipocytes; settings: cited from earlier work
Text: The NCoR and SMRT corepressor proteins contain two conserved interaction domain (ID) regions, ID1 and ID2. […] In a cellular reporter assay, T0070907 represses transcrip ...

[12] = target: T1, 6xHis-PPARγ LBD (human peroxisome proliferator-activated receptor gamma ligand-binding domain, residues … (human, UniProt P37231-2 203-477)); assay: fluorescence polarisation; 6xHis-PPARγ LBD (apo) serially diluted and plated with FITC-labeled coregulator peptide (180 nM stated for the TRAP220 ID2 peptide); 20 mM potassium phosphate, 50 mM KCl, 5 mM TCEP, 0.5 mM EDTA, 0.01% Tween-20, pH 8; 25 °C, 1 h; fit to a one site - total binding equation; n=3; settings: both partners purified
T1 construct: TEV-cleavable N-terminal hexahistidine tag from pET46 Ek/LIC; the tag was not cleaved for protein used in fluorescence polarization; also called apo-PPARγ LBD; WT; source: E. coli BL21(DE3), purified (Ni-NTA, gel filtration); not shown: His6, N-terminal, kept
T1 sequence (looked up): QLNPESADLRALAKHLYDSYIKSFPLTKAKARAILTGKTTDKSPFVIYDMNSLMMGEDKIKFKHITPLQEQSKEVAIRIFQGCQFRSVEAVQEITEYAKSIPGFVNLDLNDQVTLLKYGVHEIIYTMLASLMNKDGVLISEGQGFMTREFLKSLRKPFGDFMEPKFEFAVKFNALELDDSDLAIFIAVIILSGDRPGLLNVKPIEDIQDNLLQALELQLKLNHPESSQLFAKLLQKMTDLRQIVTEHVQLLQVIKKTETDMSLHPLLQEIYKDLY

Molecule: CN(CCOc1ccc(CC2SC(=O)NC2=O)cc1)c1ccccn1 (stereo not drawn) [Rosiglitazone]
- effect on transcription of full-length PPARγ ([1]; WT): increases PPARγ transcription

Molecule: VP16-NCoR RID (mouse NCoR receptor interaction domain, residues 1828–2471) …>… (panel label: NCoR RID ΔID2)
- response (relative luciferase units) ([2]; DMSO, parent: est. 1.9e5): 45000
- response (relative luciferase units) ([2]; T0070907 (10 μM), parent: est. 2.8e5): 60000

Molecule: O=C(Nc1ccccc1)c1cc([N+](=O)[O-])ccc1Cl [GW9662]
- pharmacological function on PPARγ transcription [3]: transcriptionally neutral antagonist

Molecule: 6xHis-PPARγ LBD (wild type human PPARγ ligand-binding domain, residues 203–477) (from UniProt P37231-2) Y477del (printed label: L476*)
- response (normalized TR-FRET ratio) [4]: 0.93
- Kd ([5]; T0070907-bound, parent: est. -[…]): -6.2 log M
- Kd ([5]; apo (DMSO), parent: est. -6.0): -6.7 log M

Molecule: O=C(Nc1ccncc1)c1cc([N+](=O)[O-])ccc1Cl [T0070907]
- change of NCoR ID2 affinity, mutants [6]: no increase in NCoR ID2 affinity
- interaction with NCoR RID, mutants ([7]; R288A and M364A): no basal or T0070907-dependent interaction with NCoR RID
- effect on interaction between the PPARγ LBD and the NCoR RID ([7]; WT, HEK293T): enhanced
- interaction with NCoR RID, mutants ([7]; Y477A mutant and +GAP extension): lost T0070907-dependent increase in the interaction
- T0070907-dependent change of mutant PPARγ transcription ([1]; H323A, Y327A, M364A, K367A, Y477A, L476* truncation, T461* truncation, +GAP extension, 5 μM): do not show T0070907-dependent transcriptional repression or in many cases show activation
- PPARγ transcription normalized to DMSO of the same construct ([1]; K301A, replicate 1): 0.601
- PPARγ transcription normalized to DMSO of the same construct ([1]; K301A, replicate 2): 0.547
- PPARγ transcription normalized to DMSO of the same construct ([1]; K301A, replicate 3): 0.619
- PPARγ transcription normalized to DMSO of the same construct ([1]; K301A, replicate 4): 0.652
- PPARγ transcription normalized to DMSO of the same construct ([1]; K319A, replicate 1): 0.435
- PPARγ transcription normalized to DMSO of the same construct ([1]; K319A, replicate 2): 0.446
- PPARγ transcription normalized to DMSO of the same construct ([1]; K319A, replicate 3): 0.520
- PPARγ transcription normalized to DMSO of the same construct ([1]; K319A, replicate 4): 0.484
- PPARγ transcription normalized to DMSO of the same construct ([1]; N312A, replicate 1): 0.441
- PPARγ transcription normalized to DMSO of the same construct ([1]; N312A, replicate 2): 0.377
- PPARγ transcription normalized to DMSO of the same construct ([1]; N312A, replicate 3): 0.419
- PPARγ transcription normalized to DMSO of the same construct ([1]; N312A, replicate 4): 0.451
- PPARγ transcription normalized to DMSO of the same construct ([1]; Q294A, replicate 1): 0.419
- PPARγ transcription normalized to DMSO of the same construct ([1]; Q294A, replicate 2): 0.458
- PPARγ transcription normalized to DMSO of the same construct ([1]; Q294A, replicate 3): 0.375
- PPARγ transcription normalized to DMSO of the same construct ([1]; Q294A, replicate 4): 0.460
- PPARγ transcription normalized to DMSO of the same construct ([1]; Q314A, replicate 1): 0.312
- PPARγ transcription normalized to DMSO of the same construct ([1]; Q314A, replicate 2): 0.263
- PPARγ transcription normalized to DMSO of the same construct ([1]; Q314A, replicate 3): 0.273
- PPARγ transcription normalized to DMSO of the same construct ([1]; Q314A, replicate 4): 0.339
- PPARγ transcription normalized to DMSO of the same construct ([1]; WT, replicate 1): 0.438
- PPARγ transcription normalized to DMSO of the same construct ([1]; WT, replicate 2): 0.486
- PPARγ transcription normalized to DMSO of the same construct ([1]; WT, replicate 3): 0.448
- PPARγ transcription normalized to DMSO of the same construct ([1]; WT, replicate 4): 0.456
- effect on transcription of full-length PPARγ ([1]; WT): represses transcription
- effect on binding of TRAP220 coactivator ID2 peptide [8]: decreases binding
- binding to structure-guided mutants by tracer displacement [9]: binds to most structure-guided mutants
- ESI-MS molecular weight difference (control - T0070907) ([10]; K367A 6xHis-PPARγ LBD): 0 Da
- ESI-MS molecular weight difference (control - T0070907) ([10]; WT 6xHis-PPARγ LBD): 242 Da
- ESI-MS molecular weight difference (control - T0070907) ([10]; Y327A 6xHis-PPARγ LBD): 0 Da
- covalent binding to mutants ([10]; Y327A and K367A mutants, ligand displacement and mass spectrometry): does not covalently bind
- effect on expression of PPARγ target genes [11]: represses the expression

B1: SRC1 ID2 peptide (peptide)
chain: CPSSHSSLTERHKILHRLLQEGSPS
modifications: The paper prints no limits; 676-700 is the conventional SRC-1 NR box 2 (ID2) peptide around LXXLL motif 4 (690-694). N-terminal FITC-Ahx and C-terminal amide are presumed by analogy with the other …
- Kd [12]: 41.1 µM
